Experimental data from patent US20240336630A1, “MAP4K1 INHIBITORS” (Blueprint Medicines Corporation, priority 2021, published 2024).
pIC50: −log10 of the molar value.

Target: T1, MAP4K1 (HPK1) (Homo sapiens, UniProt Q92918)
T1 construct: purchased Invitrogen
Assay: Inhibition of MAP4K1 biochemical enzymatic activity (EZReader 2 electrophoretic mobility shift)
Details: HPK1 (Invitrogen), S6K2tide 1.5 μM, 120 min; ATP 26 μM or 1000 μM, not stated which for Table 3
Text: MAP4K1 (HPK1) and relevant off-target enzymatic activity was monitored using the Perkin Elmer electrophoretic mobility shift technology platform—the EZReader 2. […] Within the linear, steady-state phase of the kinase enzymatic reaction, the mixed pool of phosphorylated (product) and non-phosphorylated (substrate) peptides was passed through the microfluidic system of the PerkinElmer EZ Reader 2, under an applied electric potential difference. The presence of the phosphate group on the product peptide provided a difference in mass and charge between that of the substrate peptide, resulting in a separation of the substrate and product pools in the sample (Perrin et al. 2010). As the product and substrate peptide mixture passes the lasers within the instrument, these pools are detected (λex=488 nm, λem=568 nm) and resolved as separate peaks. The ratio between these peaks reflects the activity of the compound at that concentration, in that well, under those conditions.
Inhibitors were dissolved in 100% DMSO at a stock concentration of 10 mM. A 100×, 10-point, 4-fold serial dilution of each inhibitor was created in 100% DMSO either manually or on a Hamilton STAR liquid handler, starting at a relevant concentration, usually 1 mM. A volume of 0.130 μL of each concentration was transferred to the relevant wells of a 384-well plate (Greiner 781 201) in duplicate using a TTPLabtech Mosquito nano-litre dispenser. Using a Multidrop Combi, the remaining constituents of the kinase reaction were added to the 130 nL of dosed compound as follows (see table below for final reaction details):
Enzyme activity assays at the ^APPKM for ATP or 1 mM ATP: In each well of a 384-well plate, 0.1-15 nM of untreated enzyme was incubated in a total of 13 μL of buffer (100 mM HEPES pH 7.5, 0.015% Brij 35, 10 mM MgCl2, 1 mM DTT) with 1.5 μM fluorescent peptide and 20-1000 μM ATP, at 25° C., for 60-180 minutes in the presence or absence of a dosed concentration series of compound (1% DMSO final concentration). The kinase reactions were stopped by the addition of 70 μl of Stop buffer (100 mM HEPES pH 7.5, 0.015% Brij 35, 35 mM EDTA and 0.2% of Coating Reagent 3 (Caliper Lifesciences)). The plates were read on a Caliper EZReader 2 as described above.

T1 sequence (Q92918 whole entry): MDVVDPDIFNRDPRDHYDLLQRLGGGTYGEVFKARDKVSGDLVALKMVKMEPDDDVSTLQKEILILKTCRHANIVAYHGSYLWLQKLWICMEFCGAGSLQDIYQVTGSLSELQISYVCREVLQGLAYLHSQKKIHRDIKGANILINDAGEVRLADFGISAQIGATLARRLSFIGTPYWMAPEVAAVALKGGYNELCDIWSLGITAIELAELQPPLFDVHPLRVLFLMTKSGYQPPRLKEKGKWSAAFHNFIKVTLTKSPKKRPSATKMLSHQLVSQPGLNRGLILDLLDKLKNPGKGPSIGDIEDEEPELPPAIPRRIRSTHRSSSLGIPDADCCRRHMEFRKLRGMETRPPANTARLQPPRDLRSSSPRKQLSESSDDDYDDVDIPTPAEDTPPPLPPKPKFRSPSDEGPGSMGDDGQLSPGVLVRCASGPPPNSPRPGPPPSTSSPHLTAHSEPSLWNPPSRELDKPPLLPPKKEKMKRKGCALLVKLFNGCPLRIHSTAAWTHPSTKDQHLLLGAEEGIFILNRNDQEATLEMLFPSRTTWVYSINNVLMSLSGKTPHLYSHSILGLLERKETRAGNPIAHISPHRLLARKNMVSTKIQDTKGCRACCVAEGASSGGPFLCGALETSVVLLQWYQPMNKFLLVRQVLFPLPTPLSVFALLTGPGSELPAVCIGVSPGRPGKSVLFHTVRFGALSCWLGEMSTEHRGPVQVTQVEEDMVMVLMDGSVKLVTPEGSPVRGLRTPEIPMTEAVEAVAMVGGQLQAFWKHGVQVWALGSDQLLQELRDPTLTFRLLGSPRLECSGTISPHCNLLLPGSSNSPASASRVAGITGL

| pIC50 | SMILES |
| --- | --- |
| 7.17 | COC[C@@](C)(O)c1cnc(OC2CC2)c2cnc(Nc3ccc4c(n3)[C@@H](C)[C@H](C)OC4=O)cc12 (single isomer, unassigned) [Compound 35] |
| 8.41 | COC[C@@](C)(O)c1cnc(OC2CC2)c2cnc(Nc3ccc4c(n3)[C@@H](C)[C@H](C)OC4=O)cc12 (single isomer, unassigned) [Compound 36] |
| 8.82 | C[C@@H]1c2nc(Nc3cc4c([C@@](C)(O)C5CCC5)cnc(OC5CC5)c4cn3)ccc2C(=O)OC1(C)C (single isomer, unassigned) [Compound 44] |
| 8.35 | C[C@@H]1c2nc(Nc3cc4c([C@@](C)(O)C(F)(F)F)cnc(OC5CC5)c4cn3)ccc2C(=O)OC1(C)C (single isomer, unassigned) [Compound 50] |
| 7.77 | C[C@@H]1c2nc(Nc3cc4c([C@@](C)(O)C5CC5)cnc(OCC(F)(F)F)c4cn3)ccc2C(=O)OC1(C)C (single isomer, unassigned) [Compound 54] |
| 7.80 | C[C@@H]1c2nc(Nc3cc4c([C@@](C)(O)C5CC5)cnc(OCC(F)(F)F)c4cn3)ccc2C(=O)OC1(C)C (single isomer, unassigned) [Compound 55] |
| 7.89 | CC[C@H](O)c1cnc(OC2CN(S(C)(=O)=O)C2)c2cnc(Nc3ccc4c(n3)[C@@H](C)[C@H](C)OC4=O)cc12 (single isomer, unassigned) [Compound 59] |
| 9.39 | CC[C@@](C)(O)c1cnc(O[C@H](C)C[C@@H](C)S(C)(=O)=O)c2cnc(Nc3ccc4c(n3)[C@@H](C)[C@H](C)OC4=O)cc12 (single isomer, unassigned) [Compound 68] |
| 9.05 | CC[C@@](C)(O)c1cnc(O[C@H](C)C[C@@H](C)S(C)(=O)=O)c2cnc(Nc3ccc4c(n3)[C@@H](C)C(C)(C)OC4=O)cc12 (single isomer, unassigned) [Compound 69] |
| 7.64 | CNc1ncc(C(C)(C)O)c2cc(Nc3ccnc(C(C)(C)C)n3)ncc12 [Compound 3] |
| 8.79 | COc1ncc(C(C)(C)O)c2cc(Nc3ccnc(N4CC[C@@H]4C)n3)ncc12 [Compound 9] |
| 8.92 | COc1ncc(C(C)(C)O)c2cc(Nc3ccnc(N4CCC[C@@H]4C)n3)ncc12 [Compound 10] |
| 8.20 | COc1ncc(C(C)(C)O)c2cc(Nc3cnc(C#N)c(N4CCC[C@@H]4C)n3)ncc12 [Compound 13] |
| 7.63 | CC1(C)CCc2nc(Nc3cc4c(C(C)(C)O)cnc(OC5CC5)c4cn3)ccc2C(=O)O1 [Compound 22] |
| 8.47 | CC1(C)Cc2nc(Nc3cc4c(C5(O)CCOCC5)cnc(OC5CC5)c4cn3)ccc2C(=O)O1 [Compound 42] |
| 7.50 | CC1(C)Cc2nc(Nc3cc4c(C(C)(O)c5ccccc5)cnc(OC5CC5)c4cn3)ccc2C(=O)O1 (centres unmarked) [Compound 46] |

The remaining lines, values behind:

| SMILES | pIC50 |
| --- | --- |
| CC[C@@](C)(O)c1cnc(NC2CC2)c2cnc(Nc3ccc4c(n3)[C@@H](C)C(C)(C)OC4=O)cc12 (single isomer, unassigned) [Compound 28] | 8.52 |
| CC[C@@](C)(O)c1cnc(NC2CC2)c2cnc(Nc3ccc4c(n3)[C@@H](C)C(C)(C)OC4=O)cc12 (single isomer, unassigned) [Compound 29] | 8.84 |
| CC[C@@](C)(O)c1cnc(OC2CC2)c2cnc(Nc3ccc4c(n3)[C@@H](C)C(C)(C)OC4=O)cc12 (single isomer, unassigned) [Compound 30] | 8.62 |
| CCOc1ncc([C@@](C)(O)C2CC2)c2cc(Nc3ccc4c(n3)[C@@H](C)C(C)(C)OC4=O)ncc12 (single isomer, unassigned) [Compound 32] | 7.81 |
| CCOc1ncc([C@@](C)(O)C2CC2)c2cc(Nc3ccc4c(n3)[C@@H](C)C(C)(C)OC4=O)ncc12 (single isomer, unassigned) [Compound 33] | 9.25 |
| CC[C@](C)(O)c1cnc(OC2CC2)c2cnc(Nc3ccc4c(n3)C3(CC3)C(C)(C)OC4=O)cc12 (single isomer, unassigned) [Compound 41] | 8.18 |
| C[C@@H]1c2nc(Nc3cc4c([C@@](C)(O)C5CCC5)cnc(OC5CC5)c4cn3)ccc2C(=O)OC1(C)C (single isomer, unassigned) [Compound 43] | 8.17 |
| C[C@@H]1c2nc(Nc3cc4c([C@@](C)(O)C(F)(F)F)cnc(OC5CC5)c4cn3)ccc2C(=O)OC1(C)C (single isomer, unassigned) [Compound 51] | 7.91 |
| CC[C@@](C)(O)c1cnc(OCC(F)(F)F)c2cnc(Nc3ccc4c(n3)[C@@H](C)C(C)(C)OC4=O)cc12 (single isomer, unassigned) [Compound 52] | 7.63 |
| CC[C@@](C)(O)c1cnc(OCC(F)(F)F)c2cnc(Nc3ccc4c(n3)[C@@H](C)C(C)(C)OC4=O)cc12 (single isomer, unassigned) [Compound 53] | 8.43 |
| CC[C@H](O)c1cnc(OC2CN(S(C)(=O)=O)C2)c2cnc(Nc3ccc4c(n3)[C@@H](C)[C@H](C)OC4=O)cc12 (single isomer, unassigned) [Compound 58] | 8.60 |
| CC[C@@](C)(O)c1cnc(O[C@H]2C[C@@H](S(C)(=O)=O)C2)c2cnc(Nc3ccc4c(n3)[C@@H](C)[C@H](C)OC4=O)cc12 (single isomer, unassigned) [Compound 62] | 8.78 |
| CC[C@@H](O)c1cnc(OC2CN(S(C)(=O)=O)C2)c2cnc(Nc3ccc4c(n3)[C@@H](C)C(C)(C)OC4=O)cc12 (single isomer, unassigned) [Compound 63] | 8.53 |
| CC[C@@H](O)c1cnc(OC2CN(S(C)(=O)=O)C2)c2cnc(Nc3ccc4c(n3)[C@@H](C)C(C)(C)OC4=O)cc12 (single isomer, unassigned) [Compound 64] | 9.17 |
| CC[C@@](C)(O)c1cnc(O[C@H]2C[C@@H](S(C)(=O)=O)C2)c2cnc(Nc3ccc4c(n3)[C@@H](C)C(C)(C)OC4=O)cc12 (single isomer, unassigned) [Compound 65] | 9.41 |
| CC[C@@](C)(O)c1cnc(O[C@H]2C[C@@H](S(C)(=O)=O)C2)c2cnc(Nc3ccc4c(n3)[C@@H](C)C(C)(C)OC4=O)cc12 (single isomer, unassigned) [Compound 66] | 8.76 |
| CC[C@@](C)(O)c1cnc(O[C@H](C)C[C@@H](C)S(C)(=O)=O)c2cnc(Nc3ccc4c(n3)[C@@H](C)[C@H](C)OC4=O)cc12 (single isomer, unassigned) [Compound 67] | 9.18 |
| CC[C@@](C)(O)c1cnc(O[C@H](C)C[C@@H](C)S(C)(=O)=O)c2cnc(Nc3ccc4c(n3)[C@@H](C)C(C)(C)OC4=O)cc12 (single isomer, unassigned) [Compound 70] | 9.31 |
| COc1ncc(C(C)(C)O)c2cc(Nc3ccnc(C(C)(C)C)n3)ncc12 [Compound 4] | 8.63 |
| COc1ccc(C(C)(C)O)c2cc(Nc3ccnc(C(C)(C)F)n3)ncc12 [Compound 5] | 7.74 |
| COc1ncc(C(C)(C)O)c2cc(Nc3ccnc(C(C)(C)F)n3)ncc12 [Compound 6] | 8.03 |
| COc1ncc(C(C)(C)O)c2cc(Nc3cnc(C#N)c(C(C)C)n3)ncc12 [Compound 7] | 7.76 |
| COc1ncc(C(C)(C)O)c2cc(Nc3ccc4c(n3)CCOC4=O)ncc12 [Compound 8] | 8.33 |
| C[C@@H]1OC(=O)c2ccc(Nc3cc4c(C(C)(C)O)cnc(OCC5(F)CC5)c4cn3)nc2[C@H]1C [Compound 37] | 8.70 |
| CC(=O)N1CC(Oc2ncc(C(C)(C)O)c3cc(Nc4ccc5c(n4)[C@@H](C)[C@H](C)OC5=O)ncc23)C1 [Compound 45] | 8.72 |
